Laboratory results taken from US9763905B2, “Therapeutic target for the treatment of cancers and related therapies and methods” (CHILDREN'S MEDICAL CENTER CORPORATION, priority 2013, dated 2017).
Entries after “also recorded” stand apart in the source; their conditions may differ. Where two headings read alike, the source gives them in different places.

Assays:
[1] = system: A2058 human melanoma cell line; experiment: Cell viability assay (Cell Titer Blue), Examples 1, 3, 4; type: cell-based; settings: DHA 25-250 μM 144 hours, GW9508 25-150 μM 72 hours, TAK-875 0-0.4 μM
Method: (§1) The human foreskin fibroblast (Hs27) and human melanoma (A2058, A375, SK-Mel 3) cell lines were purchased from ATCC (Manassas Va.). Cells were plated in 48-well plates at a concentration of 7.5×10^3cells/well in either DMEM (Hs27, A2058, A375; Invitrogen/GIBCO, Grand Island N.Y.) or McCoy's 5a medium (SK-Mel 3; Invitrogen/GIBCO) supplemented with 10% FBS (Invitrogen/GIBCO) and incubated at 37° C. in a humidified atmosphere with 5% CO2. After 24 hours the medium was replaced with either DMEM (HS27, A2058, A375) or McCoy's 5a Medium (SK-Mel 3) containing 1% heat […] (Invitrogen/GIBCO) and 0.1% FA-free BSA (Invitrogen/GIBCO) with various concentrations of DHA (Martek, Columbia Md.) prepared in 4 μL of ETOH. DHA was provided at 25-250 μM, and in the studies that follow GW9508 was provided at 25-150 μM and TAK-875 was provided at 0-0.4 μM. Controls were treated with 4 μL of ETOH. All concentrations were tested in quadruplicate.
(§2) Following 144 hours of DHA treatment cells were trypsinized (Trypsin-EDTA; Invitrogen/GIBCO) and viable cells were counted using an absorbance-based cell viability assay (Cell Titer Blue Cell Viability Assay; Promega, Madison Wis.). During the treatment, medium was changed at 72 hours for the DHA studies. Cell counts were reported as a percent of the control cell count.
(§3) Human foreskin fibroblast (Hs27) and human melanoma (A2058, A375, SK-Mel 3) cell lines (ATCC, Manassas Va.) were plated in 48-well plates at a concentration of 7.5×10^3cells/well in either DMEM (Hs27, A2058, A375; Invitrogen/GIBCC, Grand Island N.Y.) or McCoy's 5a Medium (SK-Mel 3; Invitrogen/GIBCO) supplemented with 10% FBS (Invitrogen/GIBCO) and incubated at 37° C. in a humidified atmosphere with 5% CO2. After 24 hours the medium was replaced with either DMEM (HS27, A2058, A375) or McCoy's 5a Medium (SK-Mel 3) containing 1% heat inactivated-FBS (Invitrogen/GIBCO) and 0.1% FA-free BSA (Invitrogen/GIBCO) with various concentrations of GW9508 (Cayman Chemical, Ann Arbor Mich.) prepared in 4 μL of ETOH, as described in Example 1. Controls were treated with 4 μL of ETOH. All concentrations were tested in quadruplicate.
(§4) Following 72 hours of treatment (GW9508) cells were trypsinized (Trypsin-EDTA; Invitrogen/GIBCO) and viable cells were counted using an absorbance-based cell viability assay (Cell Titer Blue Cell Viability Assay; Promega, Madison Wis.). Cell counts are reported as a percent of the control cell count.
(§5) Given the high expression of GPR40 and the negligible expression of GPR120 by the human melanoma cells evaluated, further studies were performed using the selective, potent and orally bioavailable GPR40 agonist, TAK-875 (Selleck Chemicals) consistent with the methods disclosed in Examples 1 and 3. In particular, such studies were performed to evaluate the ability of TAK-875 to exert an inhibitory effect on human melanoma cell lines in vitro relative to a control fibroblast cell line (Hs27) and the human breast cancer cell line MCF-7, as well as to further evaluate the mechanisms via which compounds such as omega-3 fatty acids exert their cellular effects on human melanoma.

[2] = system: A375 human melanoma cell line; experiment: as above; type: cell-based; settings: DHA 25-250 μM 144 hours, GW9508 25-150 μM 72 hours, TAK-875 0-0.4 μM
Method: as §1, §2, §3, §4, §5

[3] = system: SK-Mel3 human melanoma cell line; experiment: as above; type: cell-based; settings: DHA 25-250 μM 144 hours, GW9508 25-150 μM 72 hours, TAK-875 0-0.4 μM
Method: as §1, §2, §3, §4, §5

[4] = system: human foreskin fibroblast (Hs27) control cell line; experiment: as above; type: cell-based; settings: DHA 25-250 μM 144 hours, GW9508 25-150 μM 72 hours, TAK-875 0-0.4 μM
Method: as §1, §2, §3, §4, §5

[5] = system: human breast cancer cell line MCF-7; experiment: Cell viability assay, Example 4; type: cell-based; settings: TAK-875
[6] = system: human melanoma (A2058) xenograft; experiment: Murine subcutaneous xenograft model of human melanoma, established tumors, oral TAK-875; type: in vivo, SCID mice; settings: 100 mg/kg/day oral, N=7/group
Method: The subcutaneous murine xenograft model of human melanoma was created in 6-week old severe combined immunodeficiency (SCID) mice (Jackson Laboratories, Bar Harbor, Me.) by subcutaneous injection of 1×10^6 human melanoma cells (A2058) in […] of PBS (Invitrogen/GIBCC) into the left flank of each animal. Animal weights and tumor dimensions were measured every 48 hours. Tumor volume was calculated using the following formula: volume=length×width^2×0.52. In accordance with the methods disclosed in Example 2, a murine subcutaneous xenograft model of human melanoma was prepared and used to test the effect of once daily oral TAK-875 on the growth of established melanoma tumors in vivo. Animals were treated daily for 14 days with either a control solution or an oral solution of TAK-875 (100 mg/kg/day) from the time their tumor volume reached 200 mm^3. […] Most importantly the change in tumor volume from start of drug treatment to completion of 14 days of treatment, was 77% lower in the TAK-875 group compared to placebo (P=0.04, FIG. 3G).

[7] = system: IMR-32 neuroblastoma cell line; experiment: Cell viability assay (Cell Counting Kit-8), Example 5; type: cell-based, human; settings: DHA 0-250 μM, TAK-875 0-0.4 μM, 3 and 6 days
Method: (§6) Neuroblastoma cell lines used to perform the present studies include: ShSY5Y, IMR-32, SK-NSH, SK-NAS. Melanoma cell lines used include: A2058, A375, and SK-Mel3. Medullary thyroid carcinoma cell line used includes: TT. Malignant peripheral nerve sheath tumor used includes: sNF94.3. Control cell lines used included: human foreskin fibroblast line (Hs27), breast cancer cell lines (MCF-7 and […]), human umbilical vein endothelial cells (HUVEC) and human melanocytes (HMn). ShSY5Y was cultured in MEM/F12 containing 10% heat inactivated fetal bovine serum (FBS) (Invitrogen/GIBCO, Grand Island, N.Y.). IMR-32 was cultured in MEM containing 10% FBS (Invitrogen/GIBCO). SK-NSH was cultured in RPMI-1640 containing 10% FBS (Invitrogen/GIBCO). SK-Mel 3 was cultured in McCoy's 5a containing 10% FBS (Invitrogen/GIBCO). TT was cultured in F-12K containing 10% FBS (ATCC, Manassas, Va.). […] was cultured in Leibovitz's L-15 containing 10% FBS (ATCC). HUVEC was cultured with EGM-2 Bullet Kit (Lonza, Hopkinton, Mass.). HMn were cultured in MGM-4 (Lonza). All other cell lines were cultured in DMEM with 10% FBS (Invitrogen/GIBCO). Cells were incubated at 37° C. in a humidified atmosphere with 5% CO2. Cells were plated in 96-well plates to approximately 50% confluence prior to initial treatment.
(§7) Cells treated with the GPR40 agonist DHA had growth media that was replaced with each respective media containing 1% FBS and 0.1% FA-free BSA with varying concentrations of DHA (Cayman Chemical, Ann Arbor, Mich.) ranging from 0-250 μM solubilized in ethanol (Pharmco-Aaper, Brookfield, Conn.). Cells treated with the GPR40 agonist TAK-875 had growth media that was replaced with each respective media containing 10% FBS with varying concentration of TAK-875 (Selleck Chemicals, Houston, Tex.) ranging from 0-0.4 μM solubilized in dimethyl sulfoxide (Sigma-Aldrich, St. Louis, Mo.). Following 72 hours (TAK-875) or 144 hours (DHA) of treatment, viable cells were quantified using an absorbance-based cell viability assay (Cell Counting Kit-8, Dojindo, Kumamoto, Japan).

[8] = system: SK-NAS neuroblastoma cell line; experiment: as above; type: cell-based, human; settings: DHA 0-250 μM, TAK-875 0-0.4 μM, 3 and 6 days
Method: as §6, §7

[9] = system: SK-NSH neuroblastoma cell line; experiment: as above; type: cell-based, human; settings: DHA 0-250 μM, TAK-875 0-0.4 μM, 3 and 6 days
Method: as §6, §7

[10] = system: ShSY5Y neuroblastoma cell line; experiment: as above; type: cell-based, human; settings: DHA 0-250 μM, TAK-875 0-0.4 μM, 3 and 6 days
Method: as §6, §7

[11] = system: A2058 human melanoma cell line; experiment: as above; type: cell-based; settings: DHA 0-250 μM, TAK-875 0-0.4 μM, 6 days
Method: as §6
as §7, with “Following 72 hours (TAK-875) or 144 hours (DHA) of treatment, viable cells were quantified using an absorbance-based cell viability assay (Cell Counting Kit-8, Dojindo, Kumamoto, Japan).” left out

[12] = system: A375 human melanoma cell line; experiment: as above; type: cell-based; settings: DHA 0-250 μM, TAK-875 0-0.4 μM, 6 days
Method: as §6
as §7, with “Following 72 hours (TAK-875) or 144 hours (DHA) of treatment, viable cells were quantified using an absorbance-based cell viability assay (Cell Counting Kit-8, Dojindo, Kumamoto, Japan).” left out

[13] = system: SK-Mel 3 human melanoma cell line; experiment: as above; type: cell-based; settings: DHA 0-250 μM, TAK-875 0-0.4 μM, 6 days
Method: as §6
as §7, with “Following 72 hours (TAK-875) or 144 hours (DHA) of treatment, viable cells were quantified using an absorbance-based cell viability assay (Cell Counting Kit-8, Dojindo, Kumamoto, Japan).” left out

[14] = system: control human foreskin fibroblast (Hs27) cell line; experiment: as above; type: cell-based; settings: DHA 0-250 μM, TAK-875 0-0.4 μM, 3 and 6 days
Method: as §6, §7

[15] = system: human medullary thyroid carcinoma cell line (TT); experiment: as above; type: cell-based; settings: DHA 0-250 μM, TAK-875 0-0.4 μM, 3 and 6 days
Method: as §6, §7

human melanocytes (HMn) = experiment: as above; type: cell-based; settings: HMn primary melanocytes; DHA 0-250 μM, TAK-875 0-0.4 μM; 3 and 6 days
Method: as §6, §7

[16] = system: human umbilical vein endothelial cells (HUVEC); experiment: as above; type: cell-based; settings: DHA 0-250 μM, TAK-875 0-0.4 μM, 3 and 6 days
Method: as §6, §7

[17] = system: malignant peripheral nerve sheath tumor (MPNST) (sNF94.3) cell line; experiment: as above; type: cell-based; settings: DHA 0-250 μM, TAK-875 0-0.4 μM, 3 and 6 days
Method: as §6, §7

[18] = system: breast cancer cell line MCF-7; experiment: as above; type: cell-based, human; settings: TAK-875, 6 days
Method: as §6, with “treatment. […]” for “treatment.”

[19] = system: breast cancer cell line MDA-MB-321; experiment: as above; type: cell-based, human; settings: TAK-875, 6 days
Method: as §6, with “treatment. […]” for “treatment.”

[20] = healthy human subjects, very high doses; cited from earlier work
[21] = rat, in vivo; cited from earlier work

O=C(O)CCc1ccc(NCc2cccc(Oc3ccccc3)c2)cc1 [GW9508]
effect on growth / viable cell count (percent of control) [1]: profound inhibitory effect on the growth
effect on growth / viable cell count (percent of control) [2]: profound inhibitory effect on the growth
effect on growth / viable cell count (percent of control) [3]: profound inhibitory effect on the growth
effect on growth / toxicity in control fibroblasts [4]: not toxic

Cc1cc(OCCCS(C)(=O)=O)cc(C)c1-c1cccc(COc2ccc3c(c2)OC[C@H]3CC(=O)O)c1 [TAK-875]
effect on growth / viable cell count (percent of control) [1]: robust and selective cytotoxic effect
effect on growth / viable cell count (percent of control) [2]: robust and selective cytotoxic effect
effect on growth / viable cell count (percent of control) [3]: robust and selective cytotoxic effect
effect on growth / toxicity in control fibroblasts [4]: did not influence the growth
effect on growth [5]: did not influence the growth
tumors smaller in volume versus placebo ([6]; 14 days, from tumor volume 200 mm^3, P=0.03): 62%
tumors smaller in weight versus placebo ([6]; 14 days, from tumor volume 200 mm^3, P=0.07): 46%
animal weights versus placebo ([6]; 14 days): not significantly different
change in tumor volume from start of drug treatment to completion of 14 days, lower compared to placebo ([6]; P=0.04): 77%
cell viability [7]: significantly attenuated viability
cell viability [8]: significantly attenuated viability
cell viability [9]: significantly attenuated viability
cell viability [10]: significantly attenuated viability
cell viability [11]: significant decrease in cell viability
cell viability [12]: significant decrease in cell viability
cell viability [13]: significant decrease in cell viability
cell viability / toxicity in control cell line [14]: Little to no effect; also recorded: little effect; also recorded: Toxicity was observed in the control Hs27 cell line at high concentrations
cell viability [15]: pronounced decrease
cell viability (human melanocytes (HMn)): dramatic decrease in cell viability
cell viability [16]: minimal change in viability
cell viability [17]: pronounced effect
cell viability [18]: decrease in cell viability was observed at high concentrations
cell viability [19]: decrease in cell viability was observed at high concentrations
safety and tolerability [20]: safe and well tolerated
safety and tolerability [21]: safe and well tolerated

CC/C=C\C/C=C\C/C=C\C/C=C\C/C=C\C/C=C\CCC(=O)O [DHA, docosahexaenoic acid]
effect on growth / toxicity in control fibroblasts [4]: no growth inhibition
cell viability / toxicity in control cell line [14]: Little to no effect; also recorded: little effect; also recorded: Toxicity was observed in the control Hs27 cell line at high concentrations
